The results in this text go back to patent US9034387B2, “Intrinsically fluorescent carbon nanospheres and a process thereof” (priority 2007, dated 2015).

This experiment has as its system acetylated histone H3 in HeLa cells. The experiment in a line: Immunofluorescence analysis using acetylated H3 antibody. The format is cell-based. The settings on record: CTPB alone at 300 μM, compared with untreated cells. The text has this:
FIG. 3. Small molecule HAT activator binds to the CSP and induces hyperacetylation within HeLa cells. (a) X-ray crystal structure of CTPB showing the ball and stick model view of the compound. The color coding of the atoms is as follows: light blue, carbon; white, hydrogen; red, oxygen; grey, fluorine; green, chlorine; dark blue, nitrogen. (b) SEM image of the carbon spheres, adsorbed with CTPB (Panel I). A specific area of the sample was excited with the electron beam of energy suitable for the constituent elements to emit the X-rays of their characteristic wavelength. […] (c)-(d) Top panel represents the confocal image of HeLa cells, Bottom panel represents intensity profile of the image arising from Hoechst stained nuclei shown as blue peak, Fluorescence intensity of CSP is shown as light green peak, Fluorescence intensity from Alexa 488 fluor antibody is shown as dark green peak. HeLa cells, (3c, I) untreated, stained with Hoechst dye; (3c, II) treated with CSP, where carbon sphere fluorescence always overlap with the nuclear region, showing that the nanosphere localized within the nucleus specifically; (3c, III) untreated, probed with antibody against acetylated histone H3; (3c, IV) treated with HAT activator CTPB (300 μM), probed with antibody against acetylated histone H3. […]

Consider `CCOc1ccccc1C(=O)Nc1ccc(Cl)c(C(F)(F)F)c1` [CTPB, 4-chloro-3-trifluoromethylphenyl-2-ethoxybenzamide], for which the “acetylation level (acetylated H3 immunofluorescence), result in words” value was “did not show any difference”.
